pIC50: −log10 of the molar value.
Target: T1, Serine/threonine-protein kinase/endoribonuclease IRE1 [547-977] (Homo sapiens, UniProt O75460)
T1 construct: 547-977
Assay: In vitro RNase Assay
Description: The fluorescence intensities were normalized by setting the signal for the reaction without IRE1α* to 0.

T1 sequence (O75460 547-977): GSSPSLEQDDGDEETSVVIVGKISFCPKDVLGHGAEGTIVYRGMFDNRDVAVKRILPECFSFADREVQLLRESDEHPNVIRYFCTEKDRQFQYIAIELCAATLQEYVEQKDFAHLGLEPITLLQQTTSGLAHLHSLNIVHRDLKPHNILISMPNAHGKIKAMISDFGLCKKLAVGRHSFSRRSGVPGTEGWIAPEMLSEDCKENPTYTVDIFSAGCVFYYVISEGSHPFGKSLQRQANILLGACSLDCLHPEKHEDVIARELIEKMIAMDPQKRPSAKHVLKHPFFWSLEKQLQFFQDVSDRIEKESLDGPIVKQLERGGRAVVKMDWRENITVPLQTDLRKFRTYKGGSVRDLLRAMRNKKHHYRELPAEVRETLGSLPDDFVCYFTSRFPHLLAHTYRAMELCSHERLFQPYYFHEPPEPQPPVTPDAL

Row | SMILES | pIC50
1 | CN(C(=O)Nc1ccc(-c2nc(C3(C)CC3)n3ccnc(N)c23)c2ccccc12)c1cccc(C(F)(F)F)c1 [KIRA analog, 29] | 4.72
2 | CC1(c2nc(-c3ccc(NC(=O)NC4CCCCC4)c4ccccc34)c3c(N)nccn23)CC1 [KIRA analog, 25] | 5.66
3 | CC1(c2nc(-c3ccc(NC(=O)OCC(=O)c4ccccc4)c4ccccc34)c3c(N)nccn23)CC1 [KIRA analog, 32] | 4.22
4 | CC1(c2nc(-c3ccc(NC(=O)Nc4cccc(C(F)(F)F)c4)c(F)c3F)c3c(N)nccn23)CC1 [KIRA analog, 11] | 4.70
5 | CC1(c2nc(-c3ccc(NC(=O)N4CCCCC4)c4ccccc34)c3c(N)nccn23)CC1 [KIRA analog, 27] | 4.22
6 | CC1(c2nc(-c3ccc(NC(=O)OCCc4ccccc4)c4ccccc34)c3c(N)nccn23)CC1 [KIRA analog, 31] | 4.22
7 | Cc1cc(NC(=O)Nc2cccc(C(F)(F)F)c2)ccc1-c1nc(C2(C)CC2)n2ccnc(N)c12 [KIRA analog, 8] | 5.82
8 | CC1(c2nc(-c3ccc(NC(=O)Nc4cccc(C(F)(F)F)c4)cc3Cl)c3c(N)nccn23)CC1 [KIRA analog, 9] | 5.62
9 | CC1(c2nc(-c3ccc(NC(=O)NCc4ccccc4)c4ccccc34)c3c(N)nccn23)CC1 [KIRA analog, 23] | 5.44
10 | Cc1c(NC(=O)Nc2cccc(C(F)(F)F)c2)ccc(-c2nc(C3(C)CC3)n3ccnc(N)c23)c1C [KIRA analog, 10] | 5.92
11 | CC1(c2nc(-c3ccc(NC(=O)NC4CC4)c4ccccc34)c3c(N)nccn23)CC1 [KIRA analog, 28] | 5.20
12 | CNS(=O)(=O)c1cccc(NC(=O)Nc2ccc(-c3nc(C4(C)CC4)n4ccnc(N)c34)c3ccccc23)c1 [KIRA analog, 19] | 5.80
13 | CC1(c2nc(-c3ccc(NC(=O)N4CCOCC4)c4ccccc34)c3c(N)nccn23)CC1 [KIRA analog, 26] | 4.22
14 | CC(C)(C)c1nc(-c2ccc(NC(=O)N3CCN(c4cccc(C(F)(F)F)c4)C3=O)c3ccccc23)c2c(N)nccn12 [KIRA analog, 30] | < 4.22
15 | Cc1cc(NC(=O)Nc2ccc(-c3nc(C4(C)CC4)n4ccnc(N)c34)c3ccccc23)n[nH]1 [KIRA analog, 22] | 5.15
16 | CC1(c2nc(-c3ccc(NC(=O)NCCc4ccccc4)c4ccccc34)c3c(N)nccn23)CC1 [KIRA analog, 24] | 5.39

Now those with a higher pIC50, led by results:

Row | pIC50 | SMILES
17 | 6.72 | CN1CCN(Cc2ccc(NC(=O)Nc3ccc(-c4nc(C5(C)CC5)n5ccnc(N)c45)c4ccccc34)cc2C(F)(F)F)CC1 [KIRA analog, 20]
18 | 6.48 | CC1(c2nc(-c3ccc(NC(=O)Nc4cccc(C(F)(F)F)c4)c4ccccc34)c3c(N)nccn23)COC1 [KIRA analog, 6]
19 | 6.59 | Cc1cccc(NC(=O)Nc2ccc(-c3nc(C4(C)CC4)n4ccnc(N)c34)c3ccccc23)c1 [KIRA analog, 14]
20 | 6.54 | COc1cc(NC(=O)Nc2ccc(-c3nc(C4(C)CC4)n4ccnc(N)c34)c3ccccc23)cc(C(F)(F)F)c1 [KIRA analog, 17]
21 | 6.72 | CC1(c2nc(-c3ccc(NC(=O)Nc4ccccc4)c4ccccc34)c3c(N)nccn23)CC1 [KIRA analog, 12]
22 | 6.21 | CC1(c2nc(-c3ccc(NC(=O)Nc4cc(F)cc(C(F)(F)F)c4)c4ccccc34)c3c(N)nccn23)CC1 [KIRA analog, 18]
23 | 6.47 | CN1CCN(Cc2ccc(NC(=O)Nc3ccc(-c4nc(C5(C)CC5)n5ccnc(N)c45)c4ccccc34)cc2)CC1 [KIRA analog, 21]
24 | 6.85 | CSc1cccc(NC(=O)Nc2ccc(-c3nc(C4(C)CC4)n4ccnc(N)c34)c3ccccc23)c1 [KIRA analog, 16]
25 | 6.51 | COc1cccc(NC(=O)Nc2ccc(-c3nc(C4(C)CC4)n4ccnc(N)c34)c3ccccc23)c1 [KIRA analog, 15]
26 | 6.32 | Nc1nccn2c(C3CC3)nc(-c3ccc(NC(=O)Nc4cccc(C(F)(F)F)c4)c4ccccc34)c12 [KIRA analog, 5]
27 | 6.74 | Nc1nccn2c(C3CCC3)nc(-c3ccc(NC(=O)Nc4cccc(C(F)(F)F)c4)c4ccccc34)c12 [KIRA analog, 4]
28 | 6.92 | CC(C)(C)c1nc(-c2ccc(NC(=O)Nc3cccc(C(F)(F)F)c3)c3ccccc23)c2c(N)nccn12 [KIRA analog, 2]
29 | 6.41 | CC1(c2nc(-c3ccc(NC(=O)Nc4cccc(C(F)(F)F)c4)cc3F)c3c(N)nccn23)CC1 [KIRA analog, 7]
30 | 7.05 | CC1(c2nc(-c3ccc(NC(=O)Nc4cccc(C(F)(F)F)c4)c4ccccc34)c3c(N)nccn23)CC1 [KIRA analog, 3]
31 | 6.66 | CC1(c2nc(-c3ccc(NC(=O)Nc4cccc(F)c4)c4ccccc34)c3c(N)nccn23)CC1 [KIRA analog, 13]

From BindingDB's records for doi:10.1021/acschembio.5b00940 (University of Washington, 2016)
